Laboratory results taken from ChEMBL document CHEMBL1201862, “PubChem BioAssay data set” (2004).
The source made the active and inactive calls.

How the values were obtained:
[1] = molecular target: T1, Mannose-6-phosphate isomerase (Homo sapiens, UniProt P34949); assay: MPI inhibition at elevated mannose 6-phosphate – biochemical, fluorescence intensity, high mannose 6-phosphate, primary screen (AID 1220)
T1 sequence (P34949 whole entry): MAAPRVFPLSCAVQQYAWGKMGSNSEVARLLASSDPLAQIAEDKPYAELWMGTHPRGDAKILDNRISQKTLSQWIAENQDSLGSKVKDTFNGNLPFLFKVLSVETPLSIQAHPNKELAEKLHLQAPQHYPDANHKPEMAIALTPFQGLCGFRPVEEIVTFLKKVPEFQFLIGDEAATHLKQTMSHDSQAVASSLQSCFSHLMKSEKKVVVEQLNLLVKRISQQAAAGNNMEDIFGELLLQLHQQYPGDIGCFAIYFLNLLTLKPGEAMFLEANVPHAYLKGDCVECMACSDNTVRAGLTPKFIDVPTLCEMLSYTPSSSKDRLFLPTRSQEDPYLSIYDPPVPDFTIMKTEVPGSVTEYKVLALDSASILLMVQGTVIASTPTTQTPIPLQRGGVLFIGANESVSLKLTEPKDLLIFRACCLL

Caspase-3 = molecular target: T2, Caspase-3 (Homo sapiens, UniProt P42574); assay type: functional;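 further: Dose-response selectivity test against caspase-3 for candidate inhibitors of sentrin-specific proteases (SENPs)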
T2 sequence (P42574 whole entry): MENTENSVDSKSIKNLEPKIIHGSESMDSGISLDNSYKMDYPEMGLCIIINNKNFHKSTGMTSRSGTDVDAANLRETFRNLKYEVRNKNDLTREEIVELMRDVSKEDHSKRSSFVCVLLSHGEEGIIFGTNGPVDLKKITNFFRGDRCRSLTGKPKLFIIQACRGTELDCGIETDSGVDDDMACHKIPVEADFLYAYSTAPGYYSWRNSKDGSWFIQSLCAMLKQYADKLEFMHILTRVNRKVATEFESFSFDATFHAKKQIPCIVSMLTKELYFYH

[2] = molecular target: T3, Sentrin-specific protease 7 (Homo sapiens, UniProt Q9BQF6); assay type: functional;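 further: Luminescence-based dose-response confirmation of ultra-high-throughput screening hits, measuring inhibition of SENP7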
T3 sequence (Q9BQF6 whole entry): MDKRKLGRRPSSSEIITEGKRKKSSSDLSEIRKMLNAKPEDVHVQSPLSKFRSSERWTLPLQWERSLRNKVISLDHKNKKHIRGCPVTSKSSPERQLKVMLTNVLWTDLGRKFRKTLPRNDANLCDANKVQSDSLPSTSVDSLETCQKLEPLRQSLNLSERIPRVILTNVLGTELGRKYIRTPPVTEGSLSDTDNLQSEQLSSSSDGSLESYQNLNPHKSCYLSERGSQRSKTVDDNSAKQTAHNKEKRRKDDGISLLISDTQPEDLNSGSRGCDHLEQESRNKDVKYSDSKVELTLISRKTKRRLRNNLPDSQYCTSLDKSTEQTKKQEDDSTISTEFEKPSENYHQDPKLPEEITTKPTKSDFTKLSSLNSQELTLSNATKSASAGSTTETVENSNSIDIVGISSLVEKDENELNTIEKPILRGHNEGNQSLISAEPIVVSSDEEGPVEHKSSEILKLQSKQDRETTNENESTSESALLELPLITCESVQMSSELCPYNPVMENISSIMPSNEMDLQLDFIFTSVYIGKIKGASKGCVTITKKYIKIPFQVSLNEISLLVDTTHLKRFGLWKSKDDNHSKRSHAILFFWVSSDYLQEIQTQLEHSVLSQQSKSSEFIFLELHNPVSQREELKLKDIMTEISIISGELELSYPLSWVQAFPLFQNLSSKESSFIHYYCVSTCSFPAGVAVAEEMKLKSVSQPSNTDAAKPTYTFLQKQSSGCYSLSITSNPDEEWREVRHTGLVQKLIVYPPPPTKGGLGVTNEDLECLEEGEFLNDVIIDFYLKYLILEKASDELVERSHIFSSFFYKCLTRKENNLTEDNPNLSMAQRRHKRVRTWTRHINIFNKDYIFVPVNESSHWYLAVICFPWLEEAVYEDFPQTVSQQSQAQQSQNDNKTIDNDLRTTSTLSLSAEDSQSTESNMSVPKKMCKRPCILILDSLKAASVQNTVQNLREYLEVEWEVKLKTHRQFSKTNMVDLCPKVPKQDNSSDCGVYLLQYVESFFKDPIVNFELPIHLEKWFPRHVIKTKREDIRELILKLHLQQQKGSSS

[3] = molecular target: T4, Sentrin-specific protease 6 (Homo sapiens, UniProt Q9GZR1); assay type: functional;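 further: Luminescence-based dose-response confirmatory assay of SENP6 inhibition, following up an ultra-high-throughput screen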
T4 sequence (Q9GZR1 whole entry): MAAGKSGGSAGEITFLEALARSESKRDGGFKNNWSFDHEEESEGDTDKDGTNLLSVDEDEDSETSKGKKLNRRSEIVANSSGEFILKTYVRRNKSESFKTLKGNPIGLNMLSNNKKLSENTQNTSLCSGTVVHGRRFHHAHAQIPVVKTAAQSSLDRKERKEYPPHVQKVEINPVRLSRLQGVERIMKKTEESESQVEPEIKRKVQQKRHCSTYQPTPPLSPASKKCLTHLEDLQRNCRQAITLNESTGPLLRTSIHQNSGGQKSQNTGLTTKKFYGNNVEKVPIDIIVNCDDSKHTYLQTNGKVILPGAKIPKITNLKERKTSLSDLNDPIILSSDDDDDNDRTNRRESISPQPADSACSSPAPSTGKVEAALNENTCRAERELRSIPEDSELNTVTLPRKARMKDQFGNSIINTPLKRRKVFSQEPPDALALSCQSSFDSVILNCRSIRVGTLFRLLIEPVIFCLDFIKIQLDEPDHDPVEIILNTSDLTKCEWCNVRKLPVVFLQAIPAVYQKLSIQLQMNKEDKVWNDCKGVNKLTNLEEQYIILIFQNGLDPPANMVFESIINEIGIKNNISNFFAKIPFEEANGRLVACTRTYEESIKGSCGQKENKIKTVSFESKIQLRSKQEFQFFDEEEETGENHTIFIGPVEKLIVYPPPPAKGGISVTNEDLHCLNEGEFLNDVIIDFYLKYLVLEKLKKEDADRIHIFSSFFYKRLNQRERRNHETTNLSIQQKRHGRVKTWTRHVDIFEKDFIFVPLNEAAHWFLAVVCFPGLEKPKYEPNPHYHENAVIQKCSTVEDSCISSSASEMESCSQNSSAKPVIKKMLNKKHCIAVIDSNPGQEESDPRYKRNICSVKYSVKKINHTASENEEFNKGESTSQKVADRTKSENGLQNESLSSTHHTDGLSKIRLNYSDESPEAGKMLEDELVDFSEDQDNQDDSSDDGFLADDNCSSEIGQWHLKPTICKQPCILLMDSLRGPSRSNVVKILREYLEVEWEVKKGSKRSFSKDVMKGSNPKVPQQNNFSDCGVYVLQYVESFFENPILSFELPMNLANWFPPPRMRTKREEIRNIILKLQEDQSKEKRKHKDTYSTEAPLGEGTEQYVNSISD

[4] = molecular target: T5, Sentrin-specific protease 8 (Homo sapiens, UniProt Q96LD8); assay type: functional;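 further: luminescence read-out of SENP8 inhibition, dose-response confirmation following an ultra-high-throughput screen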
T5 sequence (Q96LD8 whole entry): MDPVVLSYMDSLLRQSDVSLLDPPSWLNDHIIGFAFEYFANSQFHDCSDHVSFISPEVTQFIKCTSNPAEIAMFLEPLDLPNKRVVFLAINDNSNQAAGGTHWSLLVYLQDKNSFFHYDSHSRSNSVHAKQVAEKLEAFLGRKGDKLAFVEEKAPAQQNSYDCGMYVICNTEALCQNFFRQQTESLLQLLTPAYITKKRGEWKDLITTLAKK

BJ [5] = assay: BJ-TERT fibroblast viability loss – cell-based, RAS-independent, luminescence, dose response (AID 1933); assay type: functional; details: Homo sapiens
BJ [6] = assay: cells; assay type: functional, cell-based; details: Homo sapiens
BJ [7] = assay: BJ-TERT-LT-ST fibroblast viability loss – cell-based, RAS-independent, luminescence, dose response (AID 1935); assay type: functional; details: Homo sapiens;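 further: BJ fibroblasts immortalized with TERT plus LT and ST oncogenes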
[8] = DRD fibroblast viability loss – cell-based, non-viral oncogenic, luminescence, dose response (AID 1934); assay type: functional; details: Homo sapiens
BJ [9] = assay: growth inhibition of engineered Ras-driven BJ cells – cell-based, alamar blue fluorescence, cherrypicked samples, dose response (AID 2631); assay type: functional; details: Homo sapiens;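 further: confirmatory dose-response assay in RAS-dependent BJ fibroblasts engineered with TERT, LT and ST, with cytotoxicity read by fluorescence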
INS1 = assay: INS-1E survival protection against cytokine death – cell-based, luminescence, retest, dose response (AID 449756); assay type: functional; details: Rattus norvegicus;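 further: cell death triggered by IL-1 beta plus TNF-alpha plus IFN-gamma mixture; protective hits raise ATP signal compared with cytokine alone wells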
[10] = microbe, parasite or virus in culture; assay type: functional; details: Mycobacterium tuberculosis
Prothrombin = Prothrombin (Homo sapiens, UniProt P00734); assay: Thrombin 1536 HTS Dose Response Confirmation. [Related pubchem assays: 1046 (Thrombin 1536 HTS; hits were confirmed in this assay)]; assay type: functional
H4 = assay: Luminescence Cell-Based Dose Response HTS to Identify Activators of 5'UTR Stem-Loop Driven Prion Protein mRNA Translation in H4 Neuroglioblastoma Cells. [Related pubchem assays: 1829 (Project Summary), 1814 (Primary HTS)]; assay type: functional; details: Homo sapiens
P388/ADR = assay: cells; assay type: functional; details: Mus musculus
SN12K1 = assay: cells; assay type: functional; details: Homo sapiens
P388 = assay: cells; assay type: functional; details: Mus musculus
[11] = viability of uninfected HEp-2 cells – cell-based, HTS, cytotoxicity control for RSV inhibitor project, dose response (AID 2410); assay type: functional; details: human respiratory syncytial virus
[12] = intracellular Trypanosoma cruzi inhibitors in host cells – cell-based, plate reader, cherry-pick samples, set 3, dose response (AID 651818); assay type: functional;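 further: compounds incubated with infected cells for about four days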

Cc1ccc(NC(=O)CN(C)C(=O)COc2cccc3cccnc23)cc1
IC50 [1]: 44.5 µM (active)

COc1ccc(NC(=O)c2cccc(Oc3ccccc3)c2)cn1
IC50 (Caspase-3): 17.5 µM (active)
IC50 [2]: 4.98 µM (active)
IC50 [3]: 15.6 µM (active)
IC50 [4]: 16.4 µM (active)

O=C(Cc1ccc(Cl)cc1)c1c[nH]c(C(=O)NCc2cccnc2)c1
EC50 (BJ [5]): 11.3 µM (inconclusive)
EC50 (BJ [6]): 6.96 µM (active)
EC50 (BJ [7]): > 150 µM (inconclusive)
EC50 [8]: > 150 µM (not active)
EC50 (BJ [9]): 4.8 µM (active)
AC50 (INS1): 0.907 µM (active)

CCN(Cc1ccncc1)Cc1c(O)ccc2cc(Br)ccc12
IC50 [1]: > 50 µM (not active)

COc1cc(CN2CCN(c3ccccc3F)CC2)c([N+](=O)[O-])cc1OC
IC50 [1]: > 50 µM (not active)

Cc1ccc(NS(=O)(=O)c2ccc(NC(=O)CN(c3cc([N+](=O)[O-])ccc3C)S(C)(=O)=O)cc2)c(C)c1
EC50 (BJ [5]): 39.7 µM (active)
EC50 (BJ [6]): > 75 µM (not active)
CC50 [10]: 4.92 µM (active)
EC50 (BJ [7]): > 150 µM (inconclusive)
EC50 [8]: > 75 µM (not active)
EC50 (BJ [9]): > 133 µM (inactive)
AC50 (INS1): 1.49 µM (active)

CCn1c(SCC(N)=O)nnc1C(C)C
IC50 (Prothrombin): > 50 µM (not active)

Cc1cccc(NC(=O)COc2ccc(Br)cc2C)n1
IC50 (Caspase-3): 13.9 µM (active)
IC50 [2]: 4.31 µM (active)
IC50 [3]: 9.12 µM (active)
IC50 [4]: > 100 µM (inactive)

Cn1c(C(=O)Nc2ccc3c(c2)OCO3)cc2sccc21
EC50 (H4): 35 µM (active)
IC50 (Caspase-3): 14.4 µM (active)
IC50 [2]: 4.52 µM (active)
IC50 [3]: 16.1 µM (active)
IC50 [4]: 19.5 µM (active)

CN1CCN(P2(=S)Oc3ccc4ccccc4c3-c3c(ccc4ccccc34)O2)CC1
GI50 (P388/ADR): 26.2 µM (inactive)
GI50 (SN12K1): 21.8 µM (inactive)
GI50 (P388): 24.1 µM (inactive)

CC(C)=CCC/C(C)=C/CCC1(C)C=Cc2c(c3ccccc3oc2=O)O1 (stereo not drawn)
GI50 (P388/ADR): 20.2 µM (inactive)
GI50 (SN12K1): 16.9 µM (inactive)
GI50 (P388): 15.2 µM (inactive)

COC1=C2CC(C)CC(OC)C(O)C(C)/C=C(\C)C(OC(N)=O)C(OC)/C=C\C=C(/C)C(=O)NC(=C(/C=N/C(C)(C)C)C1=O)C2=O (stereo not drawn)
GI50 (P388/ADR): 3.72 µM (inactive)
GI50 (SN12K1): 3.64 µM (inactive)
GI50 (P388): 2.33 µM (inactive)

CCOC(=O)/C=C/c1c(C)[nH]c(=O)[nH]c1=O
GI50 (P388/ADR): 169 µM (inactive)
GI50 (SN12K1): > 250 µM (inactive)
GI50 (P388): 158 µM (inactive)

S=C(N/N=C/c1ccc2ncccc2c1)Nc1ccccc1
CC50 [11]: 31.2 µM (active)
EC50 (BJ [5]): 27.7 µM (active)
EC50 (BJ [6]): 10.7 µM (active)
EC50 (BJ [7]): > 150 µM (inconclusive)
EC50 [8]: 14.3 µM (active)
EC50 (BJ [9]): > 133 µM (inactive)

C/C(=N\NS(=O)(=O)c1ccccc1)c1ccccc1
GI50 (P388/ADR): > 100 µM (inactive)
GI50 (SN12K1): > 100 µM (inactive)
GI50 (P388): > 100 µM (inactive)

Cc1ccc(S(=O)(=O)Nc2ccc3c(c2)CC(=O)N([C@H](C)CO)C[C@@H](C)[C@H](CN(C)Cc2ccc(C(=O)Nc4ccccc4N)cc2)O3)cc1
AC50 [12]: 2.94 µM (active)

C[C@@H]1CN([C@H](C)CO)C(=O)Cc2cc(NC(=O)c3ccncc3)ccc2O[C@H]1CN(C)Cc1ccc(-c2ccccc2)cc1
AC50 [12]: 3.08 µM (active)

C[C@@H]1CN([C@H](C)CO)C(=O)c2cccc(NC(=O)c3nc4ccccc4s3)c2O[C@H]1CN(C)Cc1ccc(C(=O)Nc2ccccc2N)cc1
AC50 [12]: 1.49 µM (active)

C[C@@H]1CN([C@@H](C)CO)C(=O)c2cc(NC(=O)Nc3ccc(C(F)(F)F)cc3)ccc2O[C@@H]1CN(C)S(=O)(=O)c1ccc(F)cc1
AC50 [12]: 4.21 µM (active)

C[C@@H]1CN([C@H](C)CO)C(=O)Cc2cc(NS(=O)(=O)c3ccccc3)ccc2O[C@@H]1CN(C)Cc1ccc(Oc2ccccc2)cc1
AC50 [12]: 4.87 µM (active)

Nc1cc(Cl)nc(N/N=C/c2c(O)ccc3ccccc23)n1
IC50 (Caspase-3): 48 µM (active)
IC50 [2]: 5.83 µM (active)
IC50 [3]: > 100 µM (inactive)
IC50 [4]: > 100 µM (inactive)

C=C(C)C(=O)O[C@H]1CC2=C[C@@H](C[C@@]3(C)O[C@@H]3[C@H]3OC(=O)C(=C)[C@@H]31)OC2=O [ELEPHANTOPIN]
GI50 (P388/ADR): 0.166 µM (active)
GI50 (SN12K1): 4.73 µM (inactive)
GI50 (P388): 0.124 µM (active)
